#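 How tested: cells in 96-well plates exposed to compound for 48 hours at five concentrations. GI50 marks 50% less growth. Definition used: TGI = concentration required for complete inhibition of growth.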
# What was measured:
# Test in all cases: DTP human tumour cell line panel, 48 h
# CCRF-CEM leukemia = test system: CCRF-CEM leukemia
# SK-MEL-5 melanoma = test system: SK-MEL-5 melanoma
# MALME-3M melanoma = test system: MALME-3M melanoma
# IGROV1 ovarian = test system: IGROV1 ovarian
# 786-0 renal = test system: 786-0 renal
# HCT-116 colon = test system: HCT-116 colon
# MOLT-4 leukemia = test system: MOLT-4 leukemia
# PC-3 prostate = test system: PC-3 prostate
# SK-MEL-2 melanoma = test system: SK-MEL-2 melanoma
# OVCAR-5 ovarian = test system: OVCAR-5 ovarian
SMILES,TGI (CCRF-CEM leukemia),TGI (SK-MEL-5 melanoma),TGI (MALME-3M melanoma),TGI (IGROV1 ovarian),TGI (786-0 renal),TGI (HCT-116 colon),TGI (MOLT-4 leukemia),GI50 (PC-3 prostate),TGI (PC-3 prostate),GI50 (SK-MEL-2 melanoma),TGI (SK-MEL-2 melanoma),GI50 (SK-MEL-5 melanoma),GI50 (MALME-3M melanoma),GI50 (OVCAR-5 ovarian),TGI (OVCAR-5 ovarian),GI50 (IGROV1 ovarian),GI50 (786-0 renal),GI50 (HCT-116 colon),GI50 (CCRF-CEM leukemia),GI50 (MOLT-4 leukemia)
COC(=O)C1=CC2C(=O)OC1C1C(=O)NC(=O)C21 (configuration not stated),> 100 µM,> 100 µM,> 100 µM,> 100 µM,> 100 µM,> 100 µM,> 100 µM,–,–,–,–,–,–,–,–,–,–,–,–,–
O=S(=O)(NC1=NCCN1C(=S)SN1CCn2c1nsc2=S)c1ccc(Oc2ccccc2)cc1,–,> 100 µM,> 100 µM,> 100 µM,> 100 µM,> 100 µM,–,56 µM,> 100 µM,29.3 µM,75.5 µM,32.3 µM,26.2 µM,> 100 µM,> 100 µM,31.8 µM,63.8 µM,51.2 µM,–,–
CCC12C=CCN(CCc3c([nH]c4ccccc34)/C=C\1)C2 (configuration not stated),> 100 µM,> 100 µM,> 100 µM,> 100 µM,> 100 µM,> 100 µM,> 100 µM,–,–,–,> 100 µM,–,–,–,–,–,–,–,–,–
O=C(NC1CC1)c1c(O)[nH]c(=S)[nH]c1=O,> 100 µM,> 100 µM,> 100 µM,> 100 µM,> 100 µM,> 100 µM,> 100 µM,–,–,–,> 100 µM,–,–,–,> 100 µM,–,–,–,–,–
CC1(C)c2ccccc2N2C(c3ccccc3)=NOC21C (configuration not stated),> 100 µM,> 100 µM,> 100 µM,> 100 µM,> 100 µM,> 100 µM,> 100 µM,–,–,–,> 100 µM,–,–,–,> 100 µM,–,–,–,–,–
CCOC(=O)c1cc(=O)n(C)c(=O)n1C,> 100 µM,> 100 µM,> 100 µM,> 100 µM,> 100 µM,> 100 µM,> 100 µM,–,–,–,> 100 µM,–,–,–,> 100 µM,–,–,–,–,–
O=c1nc2sc3ccccc3c(=O)n2[nH]1,> 100 µM,> 100 µM,> 100 µM,> 100 µM,> 100 µM,> 100 µM,> 100 µM,–,–,–,> 100 µM,–,–,–,> 100 µM,–,–,–,–,–
O=C(O)c1ccc2c(c1)C(=O)N(c1ccc(S(=O)(=O)c3ccc(N4C(=O)c5ccc(C(=O)O)cc5C4=O)cc3)cc1)C2=O,> 100 µM,> 100 µM,> 100 µM,–,> 100 µM,> 100 µM,> 100 µM,–,–,–,> 100 µM,–,–,–,> 100 µM,–,–,–,–,–
COc1ccc(Cn2cc(COc3cc(/C=C/C(=O)c4cc(OC)c(OC)c(OC)c4)ccc3OC)nn2)cc1,> 100 µM,20.5 µM,> 100 µM,> 100 µM,> 100 µM,> 100 µM,> 100 µM,3.63 µM,> 100 µM,8.33 µM,42.1 µM,3.66 µM,25.7 µM,–,–,4.14 µM,5.01 µM,3.36 µM,3.14 µM,4.67 µM
Nc1ccccc1C#C/C=C\C#Cc1ccccc1C#CCO,–,14.1 µM,–,> 50 µM,17.8 µM,24.7 µM,–,27.5 µM,> 50 µM,8.35 µM,24.2 µM,6.1 µM,–,16.8 µM,> 50 µM,0.382 µM,6.39 µM,8.3 µM,–,–

# From PubChem BioAssay (NCI)
